Test system: NCI-H23 complex spheroids with HUVEC/MSC, viability
Assay: Anticancer human tumor NCI-H23 cell line growth inhibition [RAS];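 note: spheroids exposed to compound for 7 days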;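 for viability, T/C: 100% = DMSO vehicle control viability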
Conditions: for IC50: curve of first compound; for viability, T/C: stronger effect = lower value
How it was run: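 Tumour cells grown as complex spheroids with HUVEC endothelial cells and mesenchymal stem cells, treated with RAS pathway inhibitor combinations. Each agent spans half-log steps from near clinical Cmax, or 10 microM where Cmax is unknown.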

[1] = second compound 0.000949 µM, first compound 0.00316 µM
[2] = second compound 0.000949 µM, first compound 0.01 µM
[3] = second compound 0.000949 µM, first compound 0.0316 µM
[4] = second compound 0.000949 µM, first compound 0.1 µM
[5] = second compound 0.003 µM, first compound 0.00316 µM
[6] = second compound 0.003 µM, first compound 0.01 µM
[7] = second compound 0.003 µM, first compound 0.0316 µM
[8] = second compound 0.003 µM, first compound 0.1 µM
[9] = second compound 0.00949 µM, first compound 0.00316 µM
[10] = second compound 0.00949 µM, first compound 0.01 µM
[11] = second compound 0.00949 µM, first compound 0.0316 µM
[12] = second compound 0.00949 µM, first compound 0.1 µM
[13] = second compound 0.03 µM, first compound 0.00316 µM
[14] = second compound 0.03 µM, first compound 0.01 µM
[15] = second compound 0.03 µM, first compound 0.0316 µM
[16] = second compound 0.03 µM, first compound 0.1 µM
[17] = second compound 0.0949 µM, first compound 0.00316 µM
[18] = second compound 0.0949 µM, first compound 0.01 µM
[19] = second compound 0.0949 µM, first compound 0.0316 µM
[20] = second compound 0.0949 µM, first compound 0.1 µM
[21] = second compound 0.3 µM, first compound 0.00316 µM
[22] = second compound 0.3 µM, first compound 0.01 µM
[23] = second compound 0.3 µM, first compound 0.0316 µM
[24] = second compound 0.3 µM, first compound 0.1 µM

`CC(C)n1nc(-c2ccc3oc(N)nc3c2)c2c(N)ncnc21` + CCn1c(-c2cccnc2C(C)OC)c2c3cc(ccc31)N1CCOC(CC(NC(=O)C(C(C)C)N(C)C(=O)C3(F)CCN(C(=O)C#CC(C)(C)N(C)C)CC3)C(=O)N3CCCC(N3)C(=O)OCC(C)(C)C2)C1 was tested, and the IC50 (second compound 0.000949 µM) was < 0.316 nM, the IC50 (second compound 0.003 µM) was < 0.316 nM and the IC50 (second compound 0.00949 µM) was < 0.316 nM. For the same compound, the IC50 (second compound 0.03 µM) was < 0.316 nM, the IC50 (second compound 0.0949 µM) was < 0.316 nM and the IC50 (second compound 0.3 µM) was < 0.316 nM. The viability, T/C (second compound 0.000949 µM, first compound 0.000316 µM) was 33.1%, the viability, T/C (second compound 0.000949 µM, first compound 0.001 µM) was 33.1% and the viability, T/C [1] was 22%. The viability, T/C [2] was 18.4%, the viability, T/C [3] was 16.5% and the viability, T/C [4] was 8.34%. For the same compound, the viability, T/C (second compound 0.003 µM, first compound 0.000316 µM) was 30.4%, the viability, T/C (second compound 0.003 µM, first compound 0.001 µM) was 25% and the viability, T/C [5] was 20.8%. For the same compound, the viability, T/C [6] was 18.1%, the viability, T/C [7] was 12.2% and the viability, T/C [8] was 8.88%. The viability, T/C (second compound 0.00949 µM, first compound 0.000316 µM) was 28%, the viability, T/C (second compound 0.00949 µM, first compound 0.001 µM) was 24.2% and the viability, T/C [9] was 22.4%. The viability, T/C [10] was 17.7%, the viability, T/C [11] was 12% and the viability, T/C [12] was 9.44%. For the same compound, the viability, T/C (second compound 0.03 µM, first compound 0.000316 µM) was 26.2%, the viability, T/C (second compound 0.03 µM, first compound 0.001 µM) was 24.5% and the viability, T/C [13] was 20.3%. It also gave a viability, T/C [14] of 18.6%, a viability, T/C [15] of 10.4% and a viability, T/C [16] of 9.27%. For the same compound, the viability, T/C (second compound 0.0949 µM, first compound 0.000316 µM) was 27.5%, the viability, T/C (second compound 0.0949 µM, first compound 0.001 µM) was 25.4% and the viability, T/C [17] was 24.9%. It also gave a viability, T/C [18] of 15.9%, a viability, T/C [19] of 9.52% and a viability, T/C [20] of 10.3%. The viability, T/C (second compound 0.3 µM, first compound 0.000316 µM) was 24.9%, the viability, T/C (second compound 0.3 µM, first compound 0.001 µM) was 21.9% and the viability, T/C [21] was 22.9%. It also gave a viability, T/C [22] of 16.1%, a viability, T/C [23] of 10.5% and a viability, T/C [24] of 9.53%.
`CC(C)n1nc(-c2ccc3oc(N)nc3c2)c2c(N)ncnc21` + C#Cc1c(F)ccc2cc(O)cc(-c3ncc4c(N5CC6CCC(C5)N6)nc(OCC56CCCN5CC(F)C6)nc4c3F)c12 showed an IC50 (second compound 0.0316 µM) of 53.9 nM, an IC50 (second compound 0.1 µM) of 43.2 nM and an IC50 (second compound 0.316 µM) of 22.2 nM. The IC50 (second compound 1 µM) was 14.8 nM, the IC50 (second compound 3.16 µM) was 2.86 nM and the IC50 (second compound 10 µM) was < 0.316 nM. For the same compound, the viability, T/C (second compound 0.0316 µM, first compound 0.000316 µM) was 105%, the viability, T/C (second compound 0.0316 µM, first compound 0.001 µM) was 114% and the viability, T/C (second compound 0.0316 µM, first compound 0.00316 µM) was 89.6%. It also gave a viability, T/C (second compound 0.0316 µM, first compound 0.01 µM) of 73.9%, a viability, T/C (second compound 0.0316 µM, first compound 0.0316 µM) of 51.4% and a viability, T/C (second compound 0.0316 µM, first compound 0.1 µM) of 47.1%. The viability, T/C (second compound 0.1 µM, first compound 0.000316 µM) was 108%, the viability, T/C (second compound 0.1 µM, first compound 0.001 µM) was 113% and the viability, T/C (second compound 0.1 µM, first compound 0.00316 µM) was 84.7%. For the same compound, the viability, T/C (second compound 0.1 µM, first compound 0.01 µM) was 71.4%, the viability, T/C (second compound 0.1 µM, first compound 0.0316 µM) was 53.2% and the viability, T/C (second compound 0.1 µM, first compound 0.1 µM) was 42.8%. It also gave a viability, T/C (second compound 0.316 µM, first compound 0.000316 µM) of 104%, a viability, T/C (second compound 0.316 µM, first compound 0.001 µM) of 106% and a viability, T/C (second compound 0.316 µM, first compound 0.00316 µM) of 83.7%. It also gave a viability, T/C (second compound 0.316 µM, first compound 0.01 µM) of 61.6%, a viability, T/C (second compound 0.316 µM, first compound 0.0316 µM) of 46.1% and a viability, T/C (second compound 0.316 µM, first compound 0.1 µM) of 39.4%. It also gave a viability, T/C (second compound 1 µM, first compound 0.000316 µM) of 83.6%, a viability, T/C (second compound 1 µM, first compound 0.001 µM) of 93.1% and a viability, T/C (second compound 1 µM, first compound 0.00316 µM) of 72.8%. For the same compound, the viability, T/C (second compound 1 µM, first compound 0.01 µM) was 56.4%, the viability, T/C (second compound 1 µM, first compound 0.0316 µM) was 39.6% and the viability, T/C (second compound 1 µM, first compound 0.1 µM) was 32.3%. The viability, T/C (second compound 3.16 µM, first compound 0.000316 µM) was 56.4%, the viability, T/C (second compound 3.16 µM, first compound 0.001 µM) was 60.4% and the viability, T/C (second compound 3.16 µM, first compound 0.00316 µM) was 48.4%. The viability, T/C (second compound 3.16 µM, first compound 0.01 µM) was 38.3%, the viability, T/C (second compound 3.16 µM, first compound 0.0316 µM) was 36.8% and the viability, T/C (second compound 3.16 µM, first compound 0.1 µM) was 22.9%. It also gave a viability, T/C (second compound 10 µM, first compound 0.000316 µM) of 38.8%, a viability, T/C (second compound 10 µM, first compound 0.001 µM) of 38.6% and a viability, T/C (second compound 10 µM, first compound 0.00316 µM) of 28.8%. For the same compound, the viability, T/C (second compound 10 µM, first compound 0.01 µM) was 26.9%, the viability, T/C (second compound 10 µM, first compound 0.0316 µM) was 24.1% and the viability, T/C (second compound 10 µM, first compound 0.1 µM) was 17%.
With `C=CC(=O)Nc1cc(Nc2nccc(-c3cn(C)c4ccccc34)n2)c(OC)cc1N(C)CCN(C)C` + CCn1c(-c2cccnc2C(C)OC)c2c3cc(ccc31)N1CCOC(CC(NC(=O)C(C(C)C)N(C)C(=O)C3(F)CCN(C(=O)C#CC(C)(C)N(C)C)CC3)C(=O)N3CCCC(N3)C(=O)OCC(C)(C)C2)C1 the IC50 (second compound 0.000949 µM) was < 3.16 nM, the IC50 (second compound 0.003 µM) was 719 nM and the IC50 (second compound 0.00949 µM) was < 3.16 nM. For the same compound, the IC50 (second compound 0.03 µM) was < 3.16 nM, the IC50 (second compound 0.0949 µM) was < 3.16 nM and the IC50 (second compound 0.3 µM) was < 3.16 nM. The viability, T/C [1] was 38.8%, the viability, T/C [2] was 38.4% and the viability, T/C [3] was 29%. The viability, T/C [4] was 28.6%, the viability, T/C (second compound 0.000949 µM, first compound 0.316 µM) was 25.8% and the viability, T/C (second compound 0.000949 µM, first compound 1 µM) was 20.1%. For the same compound, the viability, T/C [5] was 99.9%, the viability, T/C [6] was 44.7% and the viability, T/C [7] was 101%. It also gave a viability, T/C [8] of 120%, a viability, T/C (second compound 0.003 µM, first compound 0.316 µM) of 102% and a viability, T/C (second compound 0.003 µM, first compound 1 µM) of 32.5%. For the same compound, the viability, T/C [9] was 35.5%, the viability, T/C [10] was 28.9% and the viability, T/C [11] was 31.1%. For the same compound, the viability, T/C [12] was 30.5%, the viability, T/C (second compound 0.00949 µM, first compound 0.316 µM) was 23.9% and the viability, T/C (second compound 0.00949 µM, first compound 1 µM) was 22.2%. For the same compound, the viability, T/C [13] was 31.2%, the viability, T/C [14] was 26.7% and the viability, T/C [15] was 30.9%. The viability, T/C [16] was 30.9%, the viability, T/C (second compound 0.03 µM, first compound 0.316 µM) was 18.3% and the viability, T/C (second compound 0.03 µM, first compound 1 µM) was 23.1%. The viability, T/C [17] was 27.1%, the viability, T/C [18] was 28.6% and the viability, T/C [19] was 31%. The viability, T/C [20] was 26.7%, the viability, T/C (second compound 0.0949 µM, first compound 0.316 µM) was 19.2% and the viability, T/C (second compound 0.0949 µM, first compound 1 µM) was 21.6%. For the same compound, the viability, T/C [21] was 25.5%, the viability, T/C [22] was 26.7% and the viability, T/C [23] was 24.6%. It also gave a viability, T/C [24] of 23%, a viability, T/C (second compound 0.3 µM, first compound 0.316 µM) of 22.9% and a viability, T/C (second compound 0.3 µM, first compound 1 µM) of 21.6%.
